Laboratory results: the supplement of paper PMC10307832

Legend:
Assay in all cases: relative viability (nuclei count vs DMSO), 5 days (fraction); higher = more cells survive
[1] = test system: 201T
Outline: (§1)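 Medians of duplicate plates are given as relative viability. That measure is the nuclei count in treated wells divided by the count in vehicle wells. Counts were taken on 4× images of lung cancer cell lines in 1536-well plates, 5 days after pin-tool dosing the day after seeding with one drug alone or a fixed anchor-drug dose plus five library-drug doses (not always all listed) in √10 steps.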

[2] = test system: A-427
Outline: as §1

[3] = test system: ABC-1
Outline: as §1

[4] = test system: BEN
Outline: as §1

[5] = test system: CAL-12T
Outline: as §1

[6] = test system: H3255
Outline: as §1

[7] = test system: LC-2-ad
Outline: as §1

[8] = test system: LCLC-97TM1
Outline: as §1

[9] = test system: NCI-H1650
Outline: as §1

[10] = test system: NCI-H1651
Outline: as §1

[11] = test system: NCI-H1915
Outline: as §1

[12] = test system: NCI-H1944
Outline: as §1

[13] = test system: NCI-H2023
Outline: as §1

[14] = test system: NCI-H2087
Outline: as §1

[15] = test system: NCI-H441
Outline: as §1

[16] = test system: NCI-H460
Outline: as §1

[17] = test system: NCI-H520
Outline: as §1

[18] = test system: NCI-H596
Outline: as §1

[19] = test system: NCI-H650
Outline: as §1

[20] = test system: NCI-H661
Outline: as §1

[21] = test system: NCI-H727
Outline: as §1

[22] = test system: PC-3 [JPC-3]
Outline: as §1

Which relative viability ([1]; first compound 0.03162 µM) does the source give for `CCN(CC)CCCCNc1ncc2cc(-c3cc(OC)cc(OC)c3)c(NC(=O)NC(C)(C)C)nc2n1` + COc1cc2c(Oc3ccc(NC(=O)C4(C(=O)Nc5ccc(F)cc5)CC4)cc3F)ccnc2cc1OCCCN1CCOCC1 [Foretinib] (partner 0.25 µM) here?
Its relative viability is 1.06.

What about the relative viability ([1]; first compound 0.1 µM) of the same compound?
Its relative viability is 1.2.

What about the relative viability ([1]; first compound 0.3162 µM) of the same compound?
The relative viability was 1.05.

What about the relative viability ([1]; first compound 1 µM) of the same compound?
Its relative viability is 1.03.

And the relative viability ([2]; first compound 0.01 µM)?
Its relative viability is 1.18.

And the relative viability ([2]; first compound 0.03162 µM)?
The relative viability was 1.11.

And the relative viability ([2]; first compound 0.1 µM)?
Its relative viability is 1.18.

And the relative viability ([2]; first compound 0.3162 µM)?
The relative viability was 1.1.

And the relative viability ([2]; first compound 1 µM)?
The relative viability was 0.99.

What about the relative viability ([3]; first compound 0.01 µM) of the same compound?
The relative viability was 1.22.

What about the relative viability ([3]; first compound 0.03162 µM) of the same compound?
Its relative viability is 0.951.

And the relative viability ([3]; first compound 0.1 µM)?
The relative viability was 1.3.

And the relative viability ([3]; first compound 0.3162 µM)?
The relative viability was 1.14.

And the relative viability ([3]; first compound 1 µM)?
Its relative viability is 1.16.

What about the relative viability ([4]; first compound 0.01 µM) of the same compound?
The relative viability was 0.597.

What about the relative viability ([4]; first compound 0.03162 µM) of the same compound?
Its relative viability is 0.544.

What about the relative viability ([4]; first compound 0.1 µM) of the same compound?
The relative viability was 0.796.

And the relative viability ([4]; first compound 0.3162 µM)?
The relative viability was 0.618.

And the relative viability ([4]; first compound 1 µM)?
Its relative viability is 0.382.

And the relative viability ([5]; first compound 0.01 µM)?
The relative viability was 1.13.

What about the relative viability ([5]; first compound 0.03162 µM) of the same compound?
Its relative viability is 1.2.

What about the relative viability ([5]; first compound 0.1 µM) of the same compound?
Its relative viability is 1.35.

What about the relative viability ([5]; first compound 0.3162 µM) of the same compound?
The relative viability was 1.23.

What about the relative viability ([5]; first compound 1 µM) of the same compound?
The relative viability was 1.19.

And the relative viability ([6]; first compound 0.01 µM)?
Its relative viability is 0.898.

What about the relative viability ([6]; first compound 0.03162 µM) of the same compound?
The relative viability was 0.915.

And the relative viability ([6]; first compound 0.1 µM)?
Its relative viability is 1.04.

What about the relative viability ([6]; first compound 0.3162 µM) of the same compound?
The relative viability was 0.943.

What about the relative viability ([6]; first compound 1 µM) of the same compound?
Its relative viability is 0.85.

And the relative viability ([7]; first compound 0.01 µM)?
The relative viability was 1.09.

What about the relative viability ([7]; first compound 0.03162 µM) of the same compound?
The relative viability was 0.998.

What about the relative viability ([7]; first compound 0.1 µM) of the same compound?
The relative viability was 1.11.

What about the relative viability ([7]; first compound 0.3162 µM) of the same compound?
The relative viability was 0.951.

What about the relative viability ([7]; first compound 1 µM) of the same compound?
Its relative viability is 0.966.

And the relative viability ([8]; first compound 0.01 µM)?
Its relative viability is 1.1.

And the relative viability ([8]; first compound 0.03162 µM)?
The relative viability was 0.94.

And the relative viability ([8]; first compound 0.1 µM)?
Its relative viability is 1.03.

And the relative viability ([8]; first compound 0.3162 µM)?
The relative viability was 1.06.

And the relative viability ([8]; first compound 1 µM)?
The relative viability was 0.95.

And the relative viability ([9]; first compound 0.01 µM)?
Its relative viability is 1.26.

What about the relative viability ([9]; first compound 0.03162 µM) of the same compound?
The relative viability was 1.11.

What about the relative viability ([9]; first compound 0.1 µM) of the same compound?
Its relative viability is 1.1.

And the relative viability ([9]; first compound 0.3162 µM)?
The relative viability was 1.2.

And the relative viability ([9]; first compound 1 µM)?
The relative viability was 1.12.

And the relative viability ([10]; first compound 0.01 µM)?
Its relative viability is 0.789.

And the relative viability ([10]; first compound 0.03162 µM)?
Its relative viability is 0.949.

And the relative viability ([10]; first compound 0.1 µM)?
The relative viability was 0.82.

What about the relative viability ([10]; first compound 0.3162 µM) of the same compound?
Its relative viability is 0.761.

What about the relative viability ([10]; first compound 1 µM) of the same compound?
Its relative viability is 0.748.

What about the relative viability ([11]; first compound 0.01 µM) of the same compound?
Its relative viability is 1.15.

And the relative viability ([11]; first compound 0.03162 µM)?
Its relative viability is 1.24.

What about the relative viability ([11]; first compound 0.1 µM) of the same compound?
The relative viability was 1.13.

What about the relative viability ([11]; first compound 0.3162 µM) of the same compound?
The relative viability was 1.27.

And the relative viability ([11]; first compound 1 µM)?
Its relative viability is 1.15.

And the relative viability ([12]; first compound 0.01 µM)?
Its relative viability is 0.848.

What about the relative viability ([12]; first compound 0.03162 µM) of the same compound?
The relative viability was 0.873.

What about the relative viability ([12]; first compound 0.1 µM) of the same compound?
The relative viability was 0.844.

And the relative viability ([12]; first compound 0.3162 µM)?
The relative viability was 0.946.

And the relative viability ([12]; first compound 1 µM)?
The relative viability was 0.771.

And the relative viability ([13]; first compound 0.01 µM)?
Its relative viability is 0.954.

And the relative viability ([13]; first compound 0.03162 µM)?
Its relative viability is 0.961.

And the relative viability ([13]; first compound 0.1 µM)?
Its relative viability is 0.864.

What about the relative viability ([13]; first compound 0.3162 µM) of the same compound?
The relative viability was 0.853.

What about the relative viability ([13]; first compound 1 µM) of the same compound?
Its relative viability is 0.758.

And the relative viability ([14]; first compound 0.01 µM)?
Its relative viability is 1.25.

And the relative viability ([14]; first compound 0.03162 µM)?
The relative viability was 1.13.

And the relative viability ([14]; first compound 0.1 µM)?
The relative viability was 1.45.

What about the relative viability ([14]; first compound 0.3162 µM) of the same compound?
Its relative viability is 1.16.

And the relative viability ([14]; first compound 1 µM)?
The relative viability was 1.21.

What about the relative viability ([15]; first compound 0.01 µM) of the same compound?
Its relative viability is 1.02.

And the relative viability ([15]; first compound 0.03162 µM)?
The relative viability was 1.19.

What about the relative viability ([15]; first compound 0.1 µM) of the same compound?
Its relative viability is 1.04.

And the relative viability ([15]; first compound 0.3162 µM)?
Its relative viability is 1.04.

And the relative viability ([15]; first compound 1 µM)?
The relative viability was 0.918.

What about the relative viability ([16]; first compound 0.01 µM) of the same compound?
Its relative viability is 0.972.

What about the relative viability ([16]; first compound 0.03162 µM) of the same compound?
The relative viability was 1.13.

And the relative viability ([16]; first compound 0.1 µM)?
The relative viability was 1.03.

What about the relative viability ([16]; first compound 0.3162 µM) of the same compound?
Its relative viability is 1.04.

And the relative viability ([16]; first compound 1 µM)?
Its relative viability is 1.18.

And the relative viability ([17]; first compound 0.01 µM)?
Its relative viability is 0.677.

And the relative viability ([17]; first compound 0.03162 µM)?
Its relative viability is 0.834.

What about the relative viability ([17]; first compound 0.1 µM) of the same compound?
The relative viability was 1.15.

And the relative viability ([17]; first compound 0.3162 µM)?
The relative viability was 0.543.

And the relative viability ([17]; first compound 1 µM)?
The relative viability was 0.326.

What about the relative viability ([18]; first compound 0.01 µM) of the same compound?
Its relative viability is 0.852.

And the relative viability ([18]; first compound 0.03162 µM)?
Its relative viability is 0.919.

And the relative viability ([18]; first compound 0.1 µM)?
The relative viability was 0.943.

And the relative viability ([18]; first compound 0.3162 µM)?
The relative viability was 0.931.

What about the relative viability ([18]; first compound 1 µM) of the same compound?
The relative viability was 0.73.

And the relative viability ([19]; first compound 0.01 µM)?
Its relative viability is 0.968.

What about the relative viability ([19]; first compound 0.03162 µM) of the same compound?
Its relative viability is 0.992.

And the relative viability ([19]; first compound 0.1 µM)?
The relative viability was 1.06.

What about the relative viability ([19]; first compound 0.3162 µM) of the same compound?
The relative viability was 1.09.

And the relative viability ([19]; first compound 1 µM)?
The relative viability was 1.13.

And the relative viability ([20]; first compound 0.01 µM)?
The relative viability was 1.07.

What about the relative viability ([20]; first compound 0.03162 µM) of the same compound?
Its relative viability is 1.04.

And the relative viability ([20]; first compound 0.1 µM)?
The relative viability was 1.03.

What about the relative viability ([20]; first compound 0.3162 µM) of the same compound?
The relative viability was 1.07.

What about the relative viability ([20]; first compound 1 µM) of the same compound?
Its relative viability is 1.02.

And the relative viability ([21]; first compound 0.01 µM)?
Its relative viability is 0.956.

What about the relative viability ([21]; first compound 0.03162 µM) of the same compound?
The relative viability was 0.834.

And the relative viability ([21]; first compound 0.1 µM)?
Its relative viability is 0.919.

And the relative viability ([21]; first compound 0.3162 µM)?
Its relative viability is 1.05.

And the relative viability ([21]; first compound 1 µM)?
Its relative viability is 0.844.

What about the relative viability ([22]; first compound 0.01 µM) of the same compound?
Its relative viability is 1.08.

And the relative viability ([22]; first compound 0.03162 µM)?
The relative viability was 1.07.

And the relative viability ([22]; first compound 0.1 µM)?
The relative viability was 1.13.

What about the relative viability ([22]; first compound 0.3162 µM) of the same compound?
Its relative viability is 1.16.

And the relative viability ([22]; first compound 1 µM)?
The relative viability was 1.04.
